Patent US10357478B2, “Polyamide compound and pharmaceutical composition for treating mitochondrial genetic diseases” (Triplex Therapeutics Inc., priority 2011, dated 2019)

Columns and labels:
[1] = tested on: wild-type dsDNA (normal (wild-type) mtDNA template, 21 bases containing the 3243rd base); experiment: EMSA (electrophoretic mobility shift assay), binding to wild-type oligo-DNA; conditions: 10^−4 M polyamide, 1 hour at 37° C.
Protocol: (§1) In this Example, a binding specific to the base sequence was confirmed in vitro between the ML1 polyamide and the target. The assay was carried out in EMSA (electrophoretic mobility shift assay). The wild-type oligo-DNA with 21 bases containing the 3243rd base on which the A3243G mutation exists and the A3243G mutation oligo-DNA thereof were produced. A sense-stranded DNA with FITC bound at 5′-end and an antisense-stranded DNA were thermally denatured, slowly cooled, and annealed to obtain dsDNAs having the following sequence:
(§2) To dsDNA (50 pmol/10 μL), 40 μL of ddH2O was added and the whole was diluted to 1 pmol/μL. 4 pmol of the resulting dsDNA were mixed with the MLI polyamide solution so that the concentration became 10^−4M, and incubated for 1 hour at 37° C. Then, the sample was mixed with a loading buffer and applied on 20% non-denatured acrylamide gel (0.5×TBE) which was pre-run for 10 minutes at 350 V. An electrophoresis was carried out at 4′C and 100 V until BPB reached ¾ of the lower end of the gel, and a shift of the band was detected by LAS-3000 (Fuji Film).
(§3) The composition of the non-denatured acrylamide gel used in EMSA is shown as below: […]

[2] = tested on: A3243G mutant dsDNA (A3243G mutation mtDNA template); experiment: EMSA (electrophoretic mobility shift assay), binding to A3243G mutation oligo-DNA; conditions: 10^−4 M polyamide, 1 hour at 37° C.
Protocol: as §1, §2, §3

[3] = tested on: 2SD cybrid cells (MELAS cybrid cells); experiment: Replication of wild-type mtDNAs in MELAS cybrid cells (PCR-RFLP); assay type: cell-based; conditions: for increase level of wild-type mtDNAs in comparison with control: long-term (7, 15 or 35 days); for increase of wild-type mtDNAs: 35 days
Protocol: The MLI polyamide was given to the cultivated MELAS cybrid cells to confirm if the wild-type mtDNAs were positively reproduced in cells.
2SD cybrid cells were seeded on a 10 cm dish, and the MLI polyamide dissolved in 50% DMSO was added to the complete DMEM so that a final concentration thereof became 1 μM, 5 μM, or 10 μM. The medium to which the MLI polyamide was added was replaced every third day. In the control experiments, DMSO with the same diluted rate was added to the medium. The polyamide solution in 50% DMSO solution was diluted with ddH2O so that the concentration of DMSO in the medium became 0.1% or less, or 0.05% at a maximum.
Total DNAs were extracted from the cybrid cells treated by the MLI polyamide 14 days later, PCR-RFLP was then carried out, the bands were quantitatively analyzed by microchip electrophoresis (MCE-202 MultiNA; Shimadzu Corporation), and a mutation rate of the cybrid cells was analyzed.
Further, long-term effects were analyzed when the concentration of the MLI polyamide in the medium was 1 μM, 500 nM, or 100 nM. Total DNAs were extracted from the cybrid cells 7 days, 15 days, or 35 days later, PCR-RFLP was then carried out, electrophoresis was performed on 2% agarose gel (1×TAE), and an increase level of the wild-type mtDNAs was measured.

143B cells = experiment: Cytotoxicity in DMEM without sodium pyruvate and uridine, 143B cells; assay type: cell-based; conditions: 100 nM, 500 nM or 1 μM, 30 hours or 1 week
Protocol: (§4) 143B cells or HeLa cells were cultured in a medium prepared by adding 1 μM of ML1 polyamide to a 10% FBS-added DMEM (free of sodium pyruvate and uridine) wherein respiratory chain-defective cells are inviable. The synthesis of the respiratory chain proteins in mitochondria is essential to life-support, and only a slight dysfunction thereof results in cell death.
(§5) 143B cells or HeLa cells were cultured for a week in normal DMEM, complete DMEM (containing 0.1 mg/mL of sodium pyruvate, and 50 μg/mL of uridine), complete DMEM with the ML1 polyamide, or DMEM with the ML1 polyamide, and survival or death was observed.
(§6) In the culture of 143B cells, the MLI polyamide was added at the concentration of 100 nM, 500 nM, or 1 μM, whereas in the culture of Hela cells, the MLI polyamide was added at the concentration of 1 μM.

HeLa cells = experiment: Cytotoxicity in DMEM without sodium pyruvate and uridine, HeLa cells; assay type: cell-based; conditions: 1 μM, 30 hours or 1 week
Protocol: as §4, §5, §6

[4] = 1 μM, 14 days, PCR-RFLP, microchip electrophoresis
[5] = 5 μM, 14 days, PCR-RFLP, microchip electrophoresis

CC(=O)Nc1cc(C(=O)Nc2cc(C(=O)Nc3cc(C(=O)NCCC(=O)Nc4cn(C)c(C(=O)Nc5cc(C(=O)Nc6cc(C(=O)NCCCC(=O)Nc7cn(C)c(C(=O)Nc8cn(C)c(C(=O)Nc9cc(C(=O)NCCC(=O)Nc%10cn(C)c(C(=O)Nc%11cc(C(=O)Nc%12cn(C)c(C(=O)NCCC(=O)NCCCN(C)C)n%12)n(C)c%11)n%10)n(C)c9)n8)n7)n(C)c6)n(C)c5)n4)n(C)c3)n(C)c2)n(C)c1 [ML1 polyamide, Ac-Py-Py-Py-β-Im-Py-Py-γ-Im-Im-Py-β-Im-Py-Im-β-Dp]
shift of the band of wild-type dsDNA in EMSA [1]: significantly shifted | shift of the band of wild-type dsDNA in EMSA ([1]; listed as MLI polyamide): clear shift of the band | shift of the band of A3243G mutant dsDNA in EMSA [2]: no significant shift | shift of the band of A3243G mutant dsDNA in EMSA ([2]; listed as MLI polyamide): not clearly observed | increase level of wild-type mtDNAs in comparison with control ([3]; 100 nM, PCR-RFLP, agarose gel): grossly visible increase level | increase level of wild-type mtDNA ([3]; 500 nM, 15 days, agarose gel): significant increase level | increase of wild-type mtDNAs ([3]; 500 nM, agarose gel): continuous increase level | increase of wild-type mtDNAs ([3]; 500 nM, agarose gel, listed as MLI polyamide): continuous increase | increase level of wild-type mtDNAs in comparison with control ([3]; 500 nM, PCR-RFLP, agarose gel): grossly visible increase level | increase level of wild-type mtDNA [3, 4]: increase levels of wild-type mtDNA | mutation rate of the cybrid cells [3, 4]: decrease of the mutation rate | increase level of wild-type mtDNA ([3]; 1 μM, 14 days, PCR-RFLP, microchip electrophoresis, listed as MLI polyamide): concentration-dependent increase level | increase level of wild-type mtDNAs in comparison with control ([3]; 1 μM, PCR-RFLP, agarose gel): grossly visible increase level | increase level of wild-type mtDNA [3, 5]: increase levels of wild-type mtDNA | mutation rate of the cybrid cells [3, 5]: decrease of the mutation rate | increase level of wild-type mtDNA ([3]; 5 μM, 14 days, PCR-RFLP, microchip electrophoresis, listed as MLI polyamide): concentration-dependent increase level | morphological changes or cell cytotoxicity (143B cells): did not show any morphological changes or cell cytotoxicity | morphological changes or cell cytotoxicity (HeLa cells): did not show any morphological changes or cell cytotoxicity
